Values of other authors in US20220016119A1, “METHODS AND TREATMENTS FOR ERECTILE DYSFUNCTION” (Record Buck Farms Medical Cannabis, LLC, priority 2018, published 2022).

Settings: doses of up to 1500 mg/day

## C=C(C)[C@@H]1CCC(C)=C[C@H]1c1c(O)cc(CCCCC)cc1O [Cannabidiol, cannabidiol]
  adverse effects in patients: no significant adverse effects
